Measured values published in US5200506A, “Process for preparing new thymopentin retro-inverso analogs and fragments thereof and the intermediates obtained therein” (Eniricerche S.p.A., priority 1987, dated 1993).
Where a SMILES comes first, the peptide text is derived from it.

Tests used:
[1] = test system: spleen cells of mice incubated with SRBC; test: Plaque forming cells test; format: in vivo
Method: As the in vivo test, the so-called "plaque forming cells" test described by N. Jerne (same reference as above), has been used. The test is carried out incubating spleen cells of mice who had received the test peptides, with SRBC and counting the number of plaques formed. In the actual practice, groups of 3 mice each, received about 1 ng/mouse of test peptide i.p. one hour after the antigen (SRBC) inoculation. Four days after this treatment, the spleen cells are removed and the test is immediately carried out.
The "plaque forming cells" test has been repeated also by treating the test mice with TP5 or with the corresponding retro-inverso analog TP5-RI1-2, three days before antigen (SRBC) injection.

in vitro = details: human, heparinized human plasma
Method: Incubations are carried out at 37° C., and aliquots (100 μl each) were collected at time intervals, blocked by treatment with 10% trifluoroacetic acid and centrifuged (10,000 rpm)
for 5'. Aliquots from the supernatant were assayed . by chromatography and the concentration of the test peptide at the different times was measured.

[2] = T.P.Tischio et al. 1979; cited from earlier work
cord blood cells (CBC) = test: Rosette E formation test with sheep red blood cells; format: cell-based, human; details: overnight at 37° C.; for % formation of Rosette E: 5% CO2, blank 23; for % of live cells after incubation: 5% CO2, blank 100
Description: In particular, as the in vitro test, the Rosette E formation test has been performed both on peripheral blood […] (PBMC) and on cord blood cells (CBC). The CBC used give a percentage of Rosette E formation with sheep red blood cells (SRBC) of 20-40%. The test is based on the capability of human T cells of forming Rosette E with SRBC. The assay which has been carried out according to the metodology described by O.G.Bier at al. in Fundamentals of Immunology--Springer-Verlag (1981), consists in the incubation of CBC, with or without the test peptides, overnight at 37° C. in the presence of 5% CO2.

immune response = details: thymectomized mice, preliminary in vivo tests; L.Kisfaludy et al. 1983; cited from earlier work
[3] = mice, about 1 ng/mouse i.p. one hour after antigen (SRBC) inoculation, spleen cells four days later, blank 4.62
[4] = mice, about 1 ng/mouse i.p. one hour after antigen (SRBC) inoculation, spleen cells four days later, blank 42.000

AcOH.multidot.H-gArg-(R,S)mLys-Asp--OH [TP5^(1-3) -RI1-2]
Log Number of plaques [1, 3]: 4.78
Number of plaques formed [1, 4]: 63.125

CC(C)[C@H](NC(=O)[C@H](CC(=O)O)NC(=O)C(CCCCN)C(=O)N[C@@H](N)CCCNC(=N)N)C(=O)N[C@@H](Cc1ccc(O)cc1)C(=O)O (stereo partly drawn) [TP5-RI1-2, AcOH·H-gArg-(R,S)mLys-Asp-Val-Tyr--OH]
half-life (in vitro): 32 min

CC(C)[C@H](NC(=O)[C@H](CC(=O)O)NC(=O)[C@H](CCCCN)NC(=O)[C@@H](N)CCCN=C(N)N)C(=O)N[C@@H](Cc1ccc(O)cc1)C(=O)O [TP5, H-Arg-Lys-Asp-Val-Tyr-OH] (H-RKDVY-OH)
half-life in serum [2]: approximately 1.5 minute
Log Number of plaques ([1]; mice treated three days before antigen (SRBC) injection, blank 4.64): 4.79
Number of plaques formed ([1]; mice treated three days before antigen (SRBC) injection, blank 44.000): 62.000
Log Number of plaques [1, 3]: 4.68
Number of plaques formed [1, 4]: 48.375
% formation of Rosette E (cord blood cells (CBC); 10 ng/ml): 28%
% of live cells after incubation (cord blood cells (CBC); 10 ng/ml): 65%
% formation of Rosette E (cord blood cells (CBC); 100 ng/ml): 33%
% of live cells after incubation (cord blood cells (CBC); 100 ng/ml): 65%

N=C(N)NCCC[C@H](N)C(=O)N[C@@H](CCCCN)C(=O)N[C@@H](CC(=O)O)C(=O)O [TP5^(1-3), H-Arg-Lys-Asp-OH] (H-Arg-Lys-Asp-OH)
Log Number of plaques [1, 3]: 4.67
Number of plaques formed [1, 4]: 48.917
restoration of the immune response (immune response): able to restore the immune response in thymectomized mice
